According to the SangsterLogP compilation:

Going from `CC#CC#Cc1ccc(C#CC(Cl)COC(C)=O)s1` (stereo unspecified) to `CC#CC#CC#Cc1ccccc1`, the logP rises from 4.6 to 4.91.

`CC#CC#CC#C/C=C\C(=O)OC` and `C/C=C/C#CC#C/C=C/C(=O)OC` are within 0.2 log units of each other in logP: 2.42 for the first, 2.45 for the second.

Compared with `c1csc(-c2ccc(-c3cccs3)s2)c1`, `C=CC#Cc1ccc(-c2cccs2)s1` is lower in logP: 5.57 for the first, 5.15 for the second.

Going from `C/C=C/C#CC#Cc1ccccc1` to `O=C/C=C/C#CC#Cc1ccccc1`, the logP falls from 4.76 to 3.09.

First: OC/C=C/C#CC#Cc1ccccc1
Second: C/C=C/C#CC#CC#C/C=C/C(Cl)CO (stereo unspecified)
The logP of the first is lower: 2.48 for the first, 3.91 for the second.

With `CC=CC#CC=C1C=CC(=O)O1` the logP was 2.09.
